Measurements from patent US20100022596A1, “EPOTHILONE ANALOGUES” (priority 2006, published 2010).
Values joined by “and” are separate entries in the source; they are usually repeats but may differ in a detail not shown here. Equal values may be shown once.

Tests used:
[1] = tested on: human epidermoid carcinoma cell line KB-8511; assay: Growth inhibition of KB-8511 cells (P-gp170-overexpressing multidrug-resistant subline), 72 h, methylene blue staining; type: cell-based
[2] = tested on: human epidermoid carcinoma cell line KB-31; assay: Growth inhibition of KB-31 cells, 72 h, methylene blue staining; type: cell-based; settings: KB-31, 72 h exposure
Experimental: Determination of IC50 Values Against Human Epidermoid Carcinoma Cell Lines KB-31
Cells are exposed to compounds for 72 h. Cell numbers are estimated by quantification of protein content of fixed cells by methylene blue staining.

[3] = KB-8511 (P-gp170-overexpressing), 72 h exposure
[4] = KB-8511, 72 h exposure, class symbols

| IC50 ([1]; Homo sapiens, KB-8511, 72 h exposure, class symbols) [nM] | IC50 ([2]; Homo sapiens, KB 3-1, 72 h, class symbols) [nM] | IC50 ([1]; Homo sapiens, KB-8511 (P-gp170-overexpressing), 72 h exposure) [nM] | IC50 ([2]; Homo sapiens, KB 3-1, 72 h) [nM] | SMILES | IC50 [1, 3] | IC50 [1, 4] [nM] | IC50 [2] | IC50 ([2]; class symbols) [nM] | IC50 ([1]; KB-8511, 72 h exposure, class symbols, listed as drawing 62) [nM] |
| --- | --- | --- | --- | --- | --- | --- | --- | --- | --- |
| > 1000 | 500 to 750 | – | – | C/C(=C\c1csc(C)n1)[C@@H]1C[C@@H]2OC(=O)NC2CCCC(C)[C@H](O)C(C)C(=O)C(C)(C)C(O)CC(=O)O1 (stereo partly shown) [Compound 1] | – | – | – | – | – |
| – | – | – | – | CC(=Cc1csc(C)n1)C1CC2OC(C)=NC2CCCC(C)C(O)C(C)C(=O)C(C)(C)C(O)CC(=O)O1 (stereo not shown) [Compound 4a] | > 1000 nM | > 1000 | > 1000 nM | > 1000 | – |
| – | – | – | – | CCC1=NC2CCCC(C)C(O)C(C)C(=O)C(C)(C)C(O)CC(=O)OC(C(C)=Cc3csc(C)n3)CC2O1 (stereo not shown) [Compound 4b] | 5540 nM | > 1000 | 1860 nM | > 1000 | – |
| – | – | – | – | CCCCC1=NC2CCCC(C)C(O)C(C)C(=O)C(C)(C)C(O)CC(=O)OC(C(C)=Cc3csc(C)n3)CC2O1 (stereo not shown) [Compound 4c] | 923 nM and 998 nM | 750 to 1000 | 344 nM and 386 nM | 250 to 500 | – |
| – | – | – | – | CC(=Cc1csc(C)n1)C1CC2OC(C(C)(C)C)=NC2CCCC(C)C(O)C(C)C(=O)C(C)(C)C(O)CC(=O)O1 (stereo not shown) [Compound 4d] | 55 nM | 100 to 250 | 12 nM | 100 to 250 | – |
| – | – | – | – | COC1=NC2CCCC(C)C(O)C(C)C(=O)C(C)(C)C(O)CC(=O)OC(C(C)=Cc3csc(C)n3)CC2O1 (stereo not shown) [Compound 4e] | 5520 nM | > 1000 | 1270 nM | > 1000 | – |
| – | – | > 10000 | 615 | C/C(=C\c1csc(C)n1)[C@@H]1C[C@@H]2OC(=O)NC2CCCC(C)[C@H](O)C(C)C(=O)C(C)(C)C(O)CC(=O)O1 (stereo partly shown) [Compound 4h] | – | – | 640 nM | – | – |
| – | – | – | – | CC(=Cc1csc(C)n1)C1CC2OC(c3ccsc3)=NC2CCCC(C)C(O)C(C)C(=O)C(C)(C)C(O)CC(=O)O1 (stereo not shown) [Compound 5l] | 146 nM | – | 42 nM | – | < 100 |
| – | – | – | – | CC(=Cc1csc(C)n1)C1CC2OC(c3ccncc3)=NC2CCCC(C)C(O)C(C)C(=O)C(C)(C)C(O)CC(=O)O1 (stereo not shown) [Compound 6a] | 83 nM | < 100 | 30 nM | < 100 | – |
| – | – | – | – | CC(=Cc1csc(C)n1)C1CC2OC(c3ccsc3)=NC2CCCC(C)C(O)C(C)C(=O)C(C)(C)C(O)CC(=O)O1 (stereo not shown) [drawing 72] | – | 100 to 250 | – | < 100 | – |
